From patent publication US12637478B2, “Compound, preparation method thereof, and antibiotic composition comprising same” (priority 2020, dated 2026)
Values after ≈ are worked out from the molar mass of the structure shown. Where two headings read alike, the source gives them in different places.

Columns and labels:
S. aureus^MS [1] = test: MIC by broth microdilution (aerobic pathogens), test strain 2; format: cell-based; conditions: Staphylococcus aureus
Method: (§1) The antibacterial activity of the compounds of Examples 1 to 48 of the present invention against aerobic pathogens were evaluated by measuring the minimum concentration of the antibiotic capable of inhibiting bacterial growth by 90% compared to the growth of the non-drug treated control group. MIC was measured by the broth microdilution method based on CLSI standards [Reference: Clinical and Laboratory Standards Institute Document. (2000) Methods for Dilution Antimicrobial Susceptibility Test for Bacteria that Grow Aerobically-Fifth Edition: M7-A5. CLSI, Villanova, PA].
(§2) All 13 strains such as methicillin susceptible Staphylococcus aureus (MSSA), methicillin resistant Staphylococcus aureus (MRSA), Vancomycin resistant Staphylococcus aureus (VRSA), Staphylococcus epidermidis, methicillin resistant Staphylococcus epidermidis, Enterococcus faecalis, Vancomycin resistant Enterococcus faecalis, Enterococcus faecium, Vancomycin resistant Enterococcus faecium were used.

M. intracelluare = test: MIC by resazurin (REMA) assay against Mycobacterium, test strain 22; format: cell-based; conditions: Mycobacterium intracellulare; test strain 22, M. intracelluare, resazurin; read-out: MIC
Method: (§3) In order to test the antibacterial activity, the medium of Mycobacterium cultured to late log phase was diluted so as to be 4.0×10^5 cells/well in Middlebrook 7H10 agar medium (Difco) supplemented with 10% oleic acid, albumin, dextrose, catalase (OADC, Becton Dickinson) and 0.05% Tween 80 (Sigma Aldrich) and was dispensed into a 96-well plate. The compounds were treated so that DMSO was 1%, and after 3 days, a 0.025% resazurin (REMA) solution was dispensed, and the growth of the bacteria was confirmed after culturing. The MIC value was measured for the antibacterial activity through resazurin (excitation 530 nm, emission 590 nm).

M. abscessus = test: MIC by resazurin (REMA) assay against Mycobacterium, test strain 23; format: cell-based; conditions: Mycobacteroides abscessus; test strain 23, M. abscessus, resazurin; read-out: MIC
Method: as §3

S. aureus^MS [2] = test: MIC by broth microdilution (aerobic pathogens), test strain 1; format: cell-based; conditions: Staphylococcus aureus
Method: as §1, §2

M. avium = test: MIC by resazurin (REMA) assay against Mycobacterium, test strain 21; format: cell-based
Method: as §3

S. epidermis = test: MIC by broth microdilution (aerobic pathogens), test strain 5; format: cell-based; conditions: Staphylococcus epidermidis
Method: as §1, §2

E. faecalis^LinR = test: MIC by broth microdilution (aerobic pathogens), test strain 9; format: cell-based, Linezolid resistant Enterococcus faecalis; conditions: Enterococcus faecalis
Method: as §1, §2

S. epidermis^MR = test: MIC by broth microdilution (aerobic pathogens), test strain 6; format: cell-based, Methicillin resistant Staphylococcus epidermidis; conditions: Staphylococcus epidermidis
Method: as §1, §2

E. faecium = test: MIC by broth microdilution (aerobic pathogens), test strain 10; format: cell-based; conditions: Enterococcus faecium
Method: as §1, §2

E. faecalis = test: MIC by broth microdilution (aerobic pathogens), test strain 7; format: cell-based; conditions: Enterococcus faecalis
Method: as §1, §2

E. faecium^VRE = test: MIC by broth microdilution (aerobic pathogens), test strain 11; format: cell-based, Vancomycin resistant Enterococcus faecium; conditions: Enterococcus faecium
Method: as §1, §2

C. difficile 159 = test: MIC by agar dilution against Clostridioides difficile, test strain 15; format: cell-based
S. aureus^VR = test: MIC by broth microdilution (aerobic pathogens), test strain 4; format: cell-based, Vancomycin resistant Staphylococcus aureus; conditions: Staphylococcus aureus
Method: as §1, §2

C. difficile 161 = test: MIC by agar dilution against Clostridioides difficile, test strain 16; format: cell-based
E. faecalis^VanA = test: MIC by broth microdilution (aerobic pathogens), test strain 8; format: cell-based, Vancomycin resistant Enterococcus faecalis; conditions: Enterococcus faecalis
Method: as §1, §2

E. faecium^LinR = test: MIC by broth microdilution (aerobic pathogens), test strain 12; format: cell-based, Linezolid resistant Enterococcus faecium; conditions: Enterococcus faecium
Method: as §1, §2

S. aureus^MR = test: MIC by broth microdilution (aerobic pathogens), test strain 3; format: cell-based, Methicillin resistant Staphylococcus aureus; conditions: Staphylococcus aureus
Method: as §1, §2

C. difficile 152 = test: MIC by agar dilution against Clostridioides difficile, test strain 14; format: cell-based
C. difficile 9689 = test: MIC by agar dilution against Clostridioides difficile, test strain 13; format: cell-based
C. difficile 174 = test: MIC by agar dilution against Clostridioides difficile, test strain 18; format: cell-based
C. difficile 173 = test: MIC by agar dilution against Clostridioides difficile, test strain 17; format: cell-based; conditions: test strain 17, C. difficile 173, anaerobic, agar dilution, read-out: MIC
C. difficile 181 = test: MIC by agar dilution against Clostridioides difficile, test strain 19; format: cell-based; conditions: test strain 19, C. difficile 181, anaerobic, agar dilution, read-out: MIC
[3] = test strain 2, S. aureus^MS, read-out: MIC
[4] = test strain 1, S. aureus^MS, read-out: MIC
[5] = test strain 15, C. difficile 159, anaerobic, agar dilution, read-out: MIC
[6] = test strain 16, C. difficile 161, anaerobic, agar dilution, read-out: MIC
[7] = test strain 14, C. difficile 152, anaerobic, agar dilution, read-out: MIC
[8] = test strain 13, C. difficile 9689, anaerobic, agar dilution, read-out: MIC
[9] = test strain 18, C. difficile 174, anaerobic, agar dilution, read-out: MIC

MIC (S. aureus^MS [1]; [3])	MIC (S. aureus^MS [2]; [4])	Structure (SMILES)	MIC (S. aureus^MS [1])	MIC (S. aureus^MS [2])	MIC (S. epidermis)	MIC (E. faecalis^LinR)	MIC (S. epidermis^MR)	MIC (E. faecium)	MIC (E. faecalis)	MIC (E. faecium^VRE; VRE)	MIC (S. aureus^VR)	MIC (E. faecalis^VanA)	MIC (E. faecium^LinR)	MIC (S. aureus^MR)	MIC (C. difficile 159; [5])	MIC (C. difficile 173)	MIC (C. difficile 161; [6])	MIC (C. difficile 181)	MIC (C. difficile 152; [7])	MIC (C. difficile 9689; [8])	other results
0.5 mg/L (≈ 0.402 µM)	0.5 mg/L (≈ 0.402 µM)	C/C=C1\NC(=O)[C@H]([C@@H](C)O)NC(=O)c2csc(n2)-c2ccc(-c3nc(-c4nc(C(=O)NC5(C(=O)NCCN6CCN(CCO)CC6)CC5)cs4)cs3)nc2-c2csc(n2)[C@H]([C@@H](C)O)NC(=O)c2csc(n2)[C@H](C(C)C)NC(=O)c2csc1n2 [Compound 32]	–	–	–	–	–	–	–	–	–	–	–	–	–	–	–	–	–	–	MIC (M. intracelluare): 0.116 mg/L (≈ 0.0934 µM); MIC (M. abscessus): 0.153 mg/L (≈ 0.123 µM); MIC (M. avium; test strain 21, M. avium, resazurin, read-out: MIC): 0.153 mg/L (≈ 0.123 µM)
–	–	C/C=C1\NC(=O)[C@H]([C@@H](C)O)NC(=O)c2csc(n2)-c2ccc(-c3nc(-c4nc(C(=O)NC5(C(=O)NCCCN6C(=O)NC(C)C6=O)CC5)cs4)cs3)nc2-c2csc(n2)[C@H]([C@@H](C)O)NC(=O)c2csc(n2)[C@H](C(C)C)NC(=O)c2csc1n2 (stereo partly drawn) [Compound 37]	0.25 mg/L (≈ 0.202 µM)	0.25 mg/L (≈ 0.202 µM)	0.25 mg/L (≈ 0.202 µM)	1 mg/L (≈ 0.806 µM)	0.25 mg/L (≈ 0.202 µM)	0.5 mg/L (≈ 0.403 µM)	0.5 mg/L (≈ 0.403 µM)	1 mg/L (≈ 0.806 µM)	–	–	–	–	–	–	–	–	–	–	MIC (M. avium): 0.082 mg/L (≈ 0.0661 µM)
–	–	C/C=C(\NC(=O)c1csc(-c2csc(-c3ccc4c(n3)-c3csc(n3)[C@H]([C@@H](C)O)NC(=O)c3csc(n3)[C@H](C(C)C)NC(=O)c3csc(n3)/C(=C/C)NC(=O)[C@H]([C@@H](C)O)NC(=O)c3csc-4n3)n2)n1)C(=O)NCCCN1C(=O)CNC1=O [Compound 40]	0.5 mg/L (≈ 0.408 µM)	0.5 mg/L (≈ 0.408 µM)	0.5 mg/L (≈ 0.408 µM)	0.5 mg/L (≈ 0.408 µM)	0.25 mg/L (≈ 0.204 µM)	0.5 mg/L (≈ 0.408 µM)	0.25 mg/L (≈ 0.204 µM)	1 mg/L (≈ 0.815 µM)	0.5 mg/L (≈ 0.408 µM)	0.5 mg/L (≈ 0.408 µM)	1 mg/L (≈ 0.815 µM)	1 mg/L (≈ 0.815 µM)	–	–	–	–	–	–	MIC (C. difficile 159; 159): 1 mg/L (≈ 0.815 µM); MIC (C. difficile 161; 161): 0.5 mg/L (≈ 0.408 µM); MIC (C. difficile 152; 152): 0.5 mg/L (≈ 0.408 µM); MIC (C. difficile 9689; 9689): 1 mg/L (≈ 0.815 µM); MIC (C. difficile 174; 174): 0.5 mg/L (≈ 0.408 µM)
1 mg/L (≈ 0.815 µM)	1 mg/L (≈ 0.815 µM)	C/C=C(\NC(=O)c1csc(-c2csc(-c3ccc4c(n3)-c3csc(n3)[C@H]([C@@H](C)O)NC(=O)c3csc(n3)[C@H](C(C)C)NC(=O)c3csc(n3)/C(=C/C)NC(=O)[C@H]([C@@H](C)O)NC(=O)c3csc-4n3)n2)n1)C(=O)NCCn1cnc([N+](=O)[O-])n1 [Compound 42]	–	–	–	–	–	–	–	–	–	–	–	–	0.5 mg/L (≈ 0.408 µM)	0.5 mg/L (≈ 0.408 µM)	1 mg/L (≈ 0.815 µM)	0.5 mg/L (≈ 0.408 µM)	0.5 mg/L (≈ 0.408 µM)	0.5 mg/L (≈ 0.408 µM)	MIC (S. aureus^VR; test strain 4, S. aureus^VR (vancomycin resistant), read-out: MIC): 1 mg/L (≈ 0.815 µM); MIC (S. epidermis; test strain 5, S. epidermis, read-out: MIC): 0.5 mg/L (≈ 0.408 µM); MIC (E. faecalis^VanA; test strain 8, E. faecalis^VanA (vancomycin resistant), read-out: MIC): 0.5 mg/L (≈ 0.408 µM); MIC (E. faecalis^LinR; test strain 9, E. faecalis^LinR (linezolid resistant), read-out: MIC): 0.5 mg/L (≈ 0.408 µM); MIC (S. epidermis^MR; test strain 6, S. epidermis^MR (methicillin resistant), read-out: MIC): 0.5 mg/L (≈ 0.408 µM); MIC (E. faecium^LinR; test strain 12, E. faecium^LinR (linezolid resistant), read-out: MIC): 1 mg/L (≈ 0.815 µM); MIC (E. faecium; test strain 10, E. faecium, read-out: MIC): 1 mg/L (≈ 0.815 µM); MIC (S. aureus^MR; test strain 3, S. aureus^MR (methicillin resistant), read-out: MIC): 1 mg/L (≈ 0.815 µM); MIC (C. difficile 174; [9]): 0.5 mg/L (≈ 0.408 µM); MIC (E. faecalis; test strain 7, E. faecalis, read-out: MIC): 0.5 mg/L (≈ 0.408 µM); MIC (E. faecium^VRE; test strain 11, E. faecium^VRE (vancomycin resistant), read-out: MIC): 1 mg/L (≈ 0.815 µM)
–	–	CN[C@H](CC(C)C)C(=O)N[C@H]1C(=O)N[C@@H](CC(N)=O)C(=O)N[C@H]2C(=O)N[C@H]3C(=O)N[C@H](C(=O)N[C@H](C(=O)O)c4cc(O)cc(O)c4-c4cc3ccc4O)[C@H](O)c3ccc(c(Cl)c3)Oc3cc2cc(c3O[C@@H]2O[C@H](CO)[C@@H](O)[C@H](O)[C@H]2O[C@H]2C[C@](C)(N)[C@H](O)[C@H](C)O2)Oc2ccc(cc2Cl)[C@H]1O [Van, Vancomycin, reference compound]	0.25 mg/L (≈ 0.173 µM)	0.5 mg/L (≈ 0.345 µM)	1 mg/L (≈ 0.69 µM)	1 mg/L (≈ 0.69 µM)	0.5 mg/L (≈ 0.345 µM)	0.5 mg/L (≈ 0.345 µM)	1 mg/L (≈ 0.69 µM)	> 128 mg/L	> 128 mg/L	> 128 mg/L	0.5 mg/L (≈ 0.345 µM)	0.5 mg/L (≈ 0.345 µM)	2 mg/L (≈ 1.38 µM)	0.5 mg/L (≈ 0.345 µM)	1 mg/L (≈ 0.69 µM)	0.5 mg/L (≈ 0.345 µM)	1 mg/L (≈ 0.69 µM)	2 mg/L (≈ 1.38 µM)	MIC (C. difficile 174; [9]): 0.5 mg/L (≈ 0.345 µM)
